Results: patent US20230135894A1, “MK2 DEGRADERS AND USES THEREOF” (Kymera Therapeutics, Inc., priority 2021, published 2023)

Assays:
MK2 [1] = biological target: T1, MK2 (Homo sapiens, UniProt P49137); experiment: MK2 degradation in human THP-1 monocytic cells (MSD, 24 h); format: cell-based; parameters: endogenous in cells; key to MK2 MSD THP-1 degradation 24 h GMean External Abs DC50: A (<0.001 μM); B (0.001-0.01 μM); C (0.01-0.1 μM); D (>0.1 μM); —: “-”=not tested or inactive; settings: for Dmax: THP-1, THP-1 cells; for DC50 / MK2 MSD THP-1 degradation 24 h GMean External Abs DC50: THP-1 cells; for DC50: read-out: MK2 MSD THP-1 degradation 24 h GMean External Abs DC50
T1 sequence (P49137 whole entry): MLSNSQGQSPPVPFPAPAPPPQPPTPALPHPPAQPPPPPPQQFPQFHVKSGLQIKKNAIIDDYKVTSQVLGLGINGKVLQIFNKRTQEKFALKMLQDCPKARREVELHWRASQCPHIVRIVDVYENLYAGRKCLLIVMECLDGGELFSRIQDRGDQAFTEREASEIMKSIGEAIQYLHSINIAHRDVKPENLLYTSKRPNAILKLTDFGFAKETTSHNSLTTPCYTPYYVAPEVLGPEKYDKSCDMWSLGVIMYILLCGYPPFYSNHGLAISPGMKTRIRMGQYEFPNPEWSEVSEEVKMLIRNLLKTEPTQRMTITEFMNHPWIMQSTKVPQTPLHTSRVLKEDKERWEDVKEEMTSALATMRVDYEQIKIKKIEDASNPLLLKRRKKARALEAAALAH
How it was run: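 THP-1 cells (200,000/well) treated 24 h at 37 °C with compound dilution series (up to 10 points, 0.1% DMSO). MK2 in RIPA lysates quantified by MSD sandwich immunoassay. DC50 from 4-parameter logistic fit, DMSO-treated cells as high and lysis buffer as low signal.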

MK2 [2] = biological target: T1, MK2; experiment: MK2 degradation in human SW1353 cells (MSD, 24 h); format: cell-based; parameters: endogenous in cells; host or cells: SW-1353 (ATCC HTB-94); settings: for Dmax: read-out: MK2 MSD SW 1353 24 h Dmax %; for DC50: read-out: MK2 MSD SW1353 degradation 24 h GMean External Abs DC50
How it was run: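 SW1353 chondrosarcoma cells were treated with up to 10-point serial dilutions (0.1% DMSO) for 24 h at 37 °C, then lysed in RIPA buffer. MK2 levels were quantified by MSD sandwich immunoassay; DC50 came from a 4-parameter logistic fit normalised to DMSO-treated cells (high) and lysis buffer (low).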

SMILES	Dmax (MK2 [1])	DC50 (MK2 [1])	Dmax (MK2 [2])	DC50 (MK2 [2])	MK2 MSD THP-1 degradation 24 h GMean External Abs DC50 (MK2 [1])
Cc1cc(N2CCN(CCCc3ccc4c(c3)n(C)c(=O)n4C3CCC(=O)NC3=O)CC2)ncc1-c1ccc2c(ccc3sc4c(c32)NC[C@@H](C)NC4=O)n1 (stereo partly shown) [Compound I-249]	50 to 75%	1 to 10 nM	50 to 75%	< 1 nM	
Cc1cc(N2CCN(CC3CN(c4ccc5c(c4)n(C)c(=O)n5C4CCC(=O)NC4=O)C3)CC2)ncc1-c1ccc2c(ccc3sc4c(c32)NC[C@@H](C)NC4=O)n1 (stereo partly shown) [Compound I-250]	50 to 75%	< 1 nM	> 75%	< 1 nM	
C[C@@H]1CNc2c(sc3ccc4nc(-c5ccc(N6CCN(CCCc7ccc8c(c7)n(C)c(=O)n8C7CCC(=O)NC7=O)CC6)cc5Cl)ccc4c23)C(=O)N1 (stereo partly shown) [Compound I-251]	< 50%		50 to 75%	< 1 nM	—
C[C@@H]1CNc2c(sc3ccc4nc(-c5ccc(N6CCN(CCCc7ccc8c(c7)n(C)c(=O)n8C7CCC(=O)NC7=O)CC6)cc5F)ccc4c23)C(=O)N1 (stereo partly shown) [Compound I-252]	> 75%	< 1 nM	> 75%	< 1 nM	
Cn1c(=O)n(C2CCC(=O)NC2=O)c2cccc(CCCCCCN3CC4(CCN(c5ccc6c(c5)Cn5cc(-c7ccc(F)cc7)cc5-c5nccn5-6)C4)C3)c21 (stereo not shown) [Compound I-257]	< 50%	> 100 nM	< 50%	> 100 nM	
Cc1cc(-c2ccc3c(ccc4sc5c(c43)NC[C@@H](C)NC5=O)n2)cnc1N1CCN(CCCc2ccc3c(c2)n(C)c(=O)n3C2CCC(=O)NC2=O)CC1 (stereo partly shown) [Compound I-258]	< 50%	1 to 10 nM	50 to 75%	1 to 10 nM	
Cc1nc(N2CCN(CCCc3ccc4c(c3)n(C)c(=O)n4C3CCC(=O)NC3=O)CC2)ccc1-c1ccc2c(ccc3sc4c(c32)NC[C@@H](C)NC4=O)n1 (stereo partly shown) [Compound I-259]	< 50%		> 75%	1 to 10 nM	—
Cc1cc(N2CCN(CCCc3ccc4c(c3)n(C)c(=O)n4C3CCC(=O)NC3=O)CC2)ccc1-c1ccc2c(ccc3sc4c(c32)NC[C@@H](C)NC4=O)n1 (stereo partly shown) [Compound I-260]	50 to 75%		> 75%	< 1 nM	—
C[C@@H]1CNc2c(sc3ccc4nc(-c5ccc(N6CCN(C7CN(c8cccc9c8n(C)c(=O)n9C8CCC(=O)NC8=O)C7)CC6)cc5)ccc4c23)C(=O)N1 (stereo partly shown) [Compound I-262]	> 75%	< 1 nM	> 75%	< 1 nM	
C[C@@H]1Cc2[nH]c(-c3ccnc(-c4ccc(N5CCC(CN6CCC(c7ccc8c(c7)n(C)c(=O)n8C7CCC(=O)NC7=O)CC6)CC5)cc4)c3)cc2C(=O)N1 (stereo partly shown) [Compound I-263]	> 75%	< 1 nM	> 75%	< 1 nM	
C[C@@H]1CN(C)c2c(sc3ccc4nc(-c5cccc(N6CCC(CN7CCN(c8cccc9c(N%10CCC(=O)NC%10=O)cncc89)CC7)CC6)c5)ccc4c23)C(=O)N1 [Compound I-267]	< 50%	> 100 nM	< 50%	> 100 nM	
C[C@@H]1CNc2c(sc3ccc4nc(-c5cnc(N6CCC(CN7CCN(c8cccc9c8n(C)c(=O)n9C8CCC(=O)NC8=O)CC7)CC6)nc5)ccc4c23)C(=O)N1 (stereo partly shown) [Compound I-270]	> 75%	< 1 nM	> 75%	1 to 10 nM	
C[C@@H]1CNc2c(sc3ccc4nc(-c5ccnc(N6CCN(CCCc7ccc8c(c7)n(C)c(=O)n8C7CCC(=O)NC7=O)CC6)c5)ccc4c23)C(=O)N1 (stereo partly shown) [Compound I-275]	> 75%	< 1 nM	> 75%	< 1 nM	
C[C@@H]1CNc2c(sc3ccc4nc(-c5ccnc(N6CCN(CC7CCN(c8cccc9c8n(C)c(=O)n9C8CCC(=O)NC8=O)CC7)CC6)c5)ccc4c23)C(=O)N1 (stereo partly shown) [Compound I-276]	> 75%	1 to 10 nM	> 75%	1 to 10 nM	
C[C@@H]1CNc2c(sc3ccc4nc(-c5ccc(N6CCN(CCc7ccc8c(c7)n(C)c(=O)n8C7CCC(=O)NC7=O)CC6)nc5)ccc4c23)C(=O)N1 (stereo partly shown) [Compound I-279]	> 75%	< 1 nM	> 75%	< 1 nM	

Next, values leading:

Dmax (MK2 [1])	DC50 (MK2 [1])	Dmax (MK2 [2])	DC50 (MK2 [2])	MK2 MSD THP-1 degradation 24 h GMean External Abs DC50 (MK2 [1])	SMILES
> 75%	1 to 10 nM	> 75%	1 to 10 nM		C[C@@H]1CN(C)c2c(sc3ccc4nc(-c5ccc(N6CCC(CN7CCN(c8ccc9c(c8)n(C)c(=O)n9C8CCC(=O)NC8=O)CC7)CC6)cc5)ccc4c23)C(=O)N1 (stereo partly shown) [Compound I-253]
> 75%	< 1 nM	> 75%	< 1 nM		C[C@@H]1CNc2c(sc3ccc4nc(-c5ccc(N6CCN(CC7CN(c8ccc9c(c8)n(C)c(=O)n9C8CCC(=O)NC8=O)C7)CC6)nc5)ccc4c23)C(=O)N1 (stereo partly shown) [Compound I-254]
> 75%	1 to 10 nM	> 75%	1 to 10 nM		COc1ccc2c(c1N1CCC(CN3CCN(c4ccc(-c5ccc6c(ccc7sc8c(c76)NC[C@@H](C)NC8=O)n5)cn4)CC3)CC1)n(C)c(=O)n2C1CCC(=O)NC1=O (stereo partly shown) [Compound I-255]
> 75%	< 1 nM	> 75%	< 1 nM		COc1ccc2c(c1N1CCN(CC3CCN(c4ccc(-c5ccc6c(ccc7sc8c(c76)NC[C@@H](C)NC8=O)n5)cn4)CC3)CC1)n(C)c(=O)n2C1CCC(=O)NC1=O (stereo partly shown) [Compound I-256]
< 50%	> 100 nM	> 75%	10 to 100 nM		C[C@@H]1CN(C)c2c(sc3ccc4nc(-c5ccc(N6CCC(CN7CCN(c8cccc9c(N%10CCC(=O)NC%10=O)cncc89)CC7)CC6)cc5)ccc4c23)C(=O)N1 [Compound I-261]
> 75%	1 to 10 nM	> 75%	1 to 10 nM		C[C@@H]1CNc2c(sc3ccc4nc(N5CCC(CN6CCN(c7ccc8c(c7)n(C)c(=O)n8C7CCC(=O)NC7=O)CC6)CC5)ccc4c23)C(=O)N1 (stereo partly shown) [Compound I-264]
> 75%	1 to 10 nM	> 75%	1 to 10 nM		C[C@@H]1CNc2c(sc3ccc4nc(N5CCN(CC6CCN(c7ccc8c(c7)n(C)c(=O)n8C7CCC(=O)NC7=O)CC6)CC5)ccc4c23)C(=O)N1 (stereo partly shown) [Compound I-265]
> 75%	1 to 10 nM	> 75%	1 to 10 nM		C[C@@H]1CN(C)c2c(sc3ccc4nc(-c5ccc(N6CCN(CCCc7ccc8c(c7)n(C)c(=O)n8C7CCC(=O)NC7=O)CC6)cc5)ccc4c23)C(=O)N1 (stereo partly shown) [Compound I-266]
> 75%	1 to 10 nM	> 75%	1 to 10 nM		C[C@@H]1CN(C)c2c(sc3ccc4nc(-c5ccc(N6CCN(CC7CCN(c8ccc9c(c8)n(C)c(=O)n9C8CCC(=O)NC8=O)CC7)CC6)nc5)ccc4c23)C(=O)N1 (stereo partly shown) [Compound I-268]
> 75%	< 1 nM	> 75%	1 to 10 nM		C[C@@H]1CNc2c(sc3ccc4nc(-c5ccc(N6CCN(CC7CN(c8cccc9c8n(C)c(=O)n9C8CCC(=O)NC8=O)C7)CC6)cc5)ccc4c23)C(=O)N1 (stereo partly shown) [Compound I-269]
> 75%	< 1 nM	> 75%	< 1 nM		C[C@@H]1CNc2c(sc3ccc4nc(-c5cnc(N6CCC(CN7CCN(c8ccc9c(c8)n(C)c(=O)n9C8CCC(=O)NC8=O)CC7)CC6)nc5)ccc4c23)C(=O)N1 (stereo partly shown) [Compound I-271]
> 75%	< 1 nM	> 75%	< 1 nM		Cc1cc(-c2ccc3c(ccc4sc5c(c43)NC[C@@H](C)NC5=O)n2)cnc1N1CCN(CC2CCN(c3ccc4c(c3)n(C)c(=O)n4C3CCC(=O)NC3=O)CC2)CC1 (stereo partly shown) [Compound I-272]
> 75%	10 to 100 nM	> 75%	10 to 100 nM		C[C@@H]1CN(C)c2c(sc3ccc4nc(-c5ccc(N6CCN(CC7CCN(c8cccc9c8n(C)c(=O)n9C8CCC(=O)NC8=O)CC7)CC6)cc5)ccc4c23)C(=O)N1 (stereo partly shown) [Compound I-274]
> 75%	< 1 nM	> 75%	< 1 nM		C[C@@H]1CNc2c(sc3ccc4nc(-c5ccnc(N6CCC(CN7CCN(c8ccc9c(c8)n(C)c(=O)n9C8CCC(=O)NC8=O)CC7)CC6)c5)ccc4c23)C(=O)N1 (stereo partly shown) [Compound I-277]
> 75%	< 1 nM	> 75%	< 1 nM		C[C@@H]1CNc2c(sc3ccc4nc(-c5ccnc(N6CCN(CC7CCN(c8ccc9c(c8)n(C)c(=O)n9C8CCC(=O)NC8=O)CC7)CC6)c5)ccc4c23)C(=O)N1 (stereo partly shown) [Compound I-278]
> 75%	< 1 nM	> 75%	< 1 nM		C[C@@H]1CNc2c(sc3ccc4nc(-c5ccc(N6CCN(CCc7ccc8c(c7)n(C)c(=O)n8C7CCC(=O)NC7=O)CC6)cc5)ccc4c23)C(=O)N1 (stereo partly shown) [Compound I-280]
